Laboratory results reported in patent publication US20240156756A1 (Steel Therapeutics, Inc., priority 2021, published 2024).
Where a name gives a salt, the structure may show the parent alone. Read-outs that look alike come from different tables or passages of the source.

Columns and labels:
chronic anal fissures = details: cream containing 0.5% nifedipine for four weeks; cited from earlier work
[1] = for stability of control sample (active only, no excipient): HPLC impurities

Row | SMILES | patients experienced healing (chronic anal fissures) [%] | stability of control sample (active only, no excipient) ([1]; T0, both temperatures (RT & 40° C.)) | degradation in any excipient combinations ([1]; T0, both temperatures (RT & 40° C.), major = >5%) | degradation in DEC combinations ([1]; T4 weeks, Benzyl Alcohol and Oleyl alcohol combinations) | major degradation in DEC combinations ([1]; T4 weeks, RT & 40° C., combinations of Transcutol, DMI, and PEG 400) [%] | stability of control sample (active only, no excipient) ([1]; T4 weeks, both temperatures (RT & 40° C.))
1 | COC(=O)C1=C(C)NC(C)=C(C(=O)OC)C1c1ccccc1[N+](=O)[O-] [Nifedipine, dimethyl 2,6-dimethyl-4-(2-nitrophenyl)-1,4-dihydropyridine-3,5-dicarboxylate] | 70 | – | – | – | – | –
2 | CCN(CC)CC(=O)Nc1c(C)cccc1C [Lidocaine HCl, 2-(diethylamino)-N-(2,6-dimethylphenyl)acetamide;hydrochloride] | – | stable | No major degradation | Slight degradation | > 5 | stable
